Data on 6 compounds can be found in ChEMBL document CHEMBL1130486, “Novel 5-amino-6-methylquinolone antibacterials: A new class of non-6-fluoroquinolones” (1997).

Assay [1] deals with Staphylococcus aureus. Briefly: In vitro minimum inhibitory concentration was determined for antibacterial activity against Staphylococcus aureus 6538p strain. It counts as functional.
Assay [2] has as its system Citrobacter koseri. Briefly: In vitro minimum inhibitory concentration was determined for antibacterial activity against Citrobacter diversus 2046E strain. Type of assay: functional.
For assay [3], the system named is Staphylococcus aureus. Briefly: In vitro minimum inhibitory concentration was determined for antibacterial activity against Staphylococcus aureus giorgio strain. It counts as functional.
Assay [4] deals with Staphylococcus epidermidis. Briefly: In vitro minimum inhibitory concentration was determined for antibacterial activity against Staphylococcus epidermis 887E strain. Type of assay: functional.
Assay [5] concerns Escherichia coli. Briefly: In vitro minimum inhibitory concentration was determined for antibacterial activity against Escherichia coli TEM5 3739E strain. It counts as functional.
Assay [6] concerns Pseudomonas aeruginosa. Briefly: In vitro minimum inhibitory concentration was determined for antibacterial activity against Pseudomonas aeruginosa 1012E strain. It counts as functional.
Assay [7] relates to Staphylococcus aureus. As to the kind of experiment: In vitro minimum inhibitory concentration was determined for antibacterial activity against Staphylococcus aureus 241 strain. Type of assay: functional.
In assay [8] the test system is Escherichia coli. As to the kind of experiment: In vitro minimum inhibitory concentration was determined for antibacterial activity against Escherichia coli 10536 strain. Type of assay: functional.
The test system of assay [9] is Klebsiella aerogenes. As to the kind of experiment: In vitro minimum inhibitory concentration was determined for antibacterial activity against Klebsiella aerogenes 1082E strain. It counts as functional.
For assay [10], the system named is Micrococcus luteus. As to the kind of experiment: In vitro minimum inhibitory concentration was determined for antibacterial activity against Micrococcus luteus ATCC 9341 strain. Type of assay: functional.
For assay [11], the system named is Klebsiella aerogenes. Briefly: In vitro minimum inhibitory concentration was determined for antibacterial activity against Klebsiella aerogenes 1076E strain. It counts as functional.
Assay [12] deals with Acinetobacter calcoaceticus. As to the kind of experiment: In vitro minimum inhibitory concentration was determined for antibacterial activity against Acinetobacter calcoaceticus 15473 strain. It counts as functional.
In assay [13] the test system is Escherichia coli. Briefly: In vitro minimum inhibitory concentration was determined for antibacterial activity against Escherichia coli 3190Y strain. Type of assay: functional.
In assay [14] the test system is Staphylococcus epidermidis. Briefly: In vitro minimum inhibitory concentration was determined for antibacterial activity against Staphylococcus epidermis 178 strain. It counts as functional.
Assay [15] concerns Staphylococcus aureus. As to the kind of experiment: In vitro minimum inhibitory concentration was determined for antibacterial activity against Staphylococcus aureus 77 strain. Type of assay: functional.
The subject of assay [16] is Enterococcus faecalis. Briefly: In vitro minimum inhibitory concentration was determined for antibacterial activity against […] 29212 strain. It counts as functional.
The test system of assay [17] is Enterobacter cloacae. Briefly: In vitro minimum inhibitory concentration was determined for antibacterial activity against Enterobacter cloacae p99 strain. Type of assay: functional.
For assay [18], the system named is Pseudomonas aeruginosa. Briefly: In vitro minimum inhibitory concentration was determined for antibacterial activity against Pseudomonas aeruginosa 10145 strain. It counts as functional.
Assay [19] concerns Salmonella typhimurium. As to the kind of experiment: In vitro minimum inhibitory concentration was determined for antibacterial activity against Salmonella Typhimurium 14028 strain. It counts as functional, Salmonella enterica subsp. enterica serovar Typhimurium. Particulars: Salmonella enterica.
The test system of assay [20] is Enterobacter cloacae. As to the kind of experiment: In vitro minimum inhibitory concentration was determined for antibacterial activity against Enterobacter cloacae 1194E strain. Type of assay: functional.
The subject of assay [21] is Escherichia coli. As to the kind of experiment: In vitro minimum inhibitory concentration was determined for antibacterial activity against Escherichia coli 851E strain. It counts as functional.
For assay [22], the system named is Bacillus subtilis. As to the kind of experiment: In vitro minimum inhibitory concentration was determined for antibacterial activity against Bacillus subtilis ATCC 6633 strain. Type of assay: functional.
Assay [23] concerns Escherichia coli. Briefly: In vitro minimum inhibitory concentration was determined for antibacterial activity against Escherichia coli TEM9 2639E strain. Type of assay: functional.

Structures are written as SMILES. Converted amounts (≈) assume the structure as drawn.

On to `O=C(O)c1cn(C2CC2)c2cc(N3CCNCC3)c(F)cc2c1=O` [CIPROFLOXACIN], for which the MIC stood at 0.13 µg/mL (≈ 0.392 µM) in assay [1]; 0.016 µg/mL (≈ 0.0483 µM) in assay [2]; 0.25 µg/mL (≈ 0.754 µM) in assay [3]; 0.13 µg/mL (≈ 0.392 µM) in assay [4]; 0.13 µg/mL (≈ 0.392 µM) in assay [5]; 0.13 µg/mL (≈ 0.392 µM) in assay [6]. For the same compound, the MIC in assay [7] was 128 µg/mL (≈ 386 µM); in assay [8] it was ≤ 0.008 µg/mL; in assay [9] it was ≤ 0.008 µg/mL; in assay [10] it was 4 µg/mL (≈ 12.1 µM); in assay [11], 0.13 µg/mL (≈ 0.392 µM); in assay [12] it was 0.25 µg/mL (≈ 0.754 µM). Moreover, the MIC is ≤ 0.008 µg/mL in assay [13], 128 µg/mL (≈ 386 µM) in [14], 0.25 µg/mL (≈ 0.754 µM) in assay [15] and 0.5 µg/mL (≈ 1.51 µM) in assay [16].
Turning to `Cc1c(N2CCNC(C)C2)c(F)c2c(c1N)c(=O)c(C(=O)O)cn2C1CC1` (configuration not stated), the MIC in [1] was determined as 0.5 µg/mL (≈ 1.34 µM); in assay [17], 0.016 µg/mL (≈ 0.0427 µM); in assay [2], 0.063 µg/mL (≈ 0.168 µM); in assay [3] it was 0.25 µg/mL (≈ 0.668 µM); in [4], 0.25 µg/mL (≈ 0.668 µM); in [5], 0.5 µg/mL (≈ 1.34 µM). In addition, the MIC was 2 µg/mL (≈ 5.34 µM) in assay [18]; 0.13 µg/mL (≈ 0.347 µM) in [19]; 0.13 µg/mL (≈ 0.347 µM) in assay [20]; 2 µg/mL (≈ 5.34 µM) in assay [6]; 0.063 µg/mL (≈ 0.168 µM) in [21]; 16 µg/mL (≈ 42.7 µM) in assay [7]. Further, the MIC is 0.063 µg/mL (≈ 0.168 µM) in assay [8]; 0.13 µg/mL (≈ 0.347 µM) in assay [9]; 0.063 µg/mL (≈ 0.168 µM) in assay [22]; 8 µg/mL (≈ 21.4 µM) in assay [10]; 0.25 µg/mL (≈ 0.668 µM) in assay [11]; 0.13 µg/mL (≈ 0.347 µM) in [12]. Also, the MIC in assay [13] amounted to 0.016 µg/mL (≈ 0.0427 µM); in assay [23], 0.063 µg/mL (≈ 0.168 µM); in assay [14], 16 µg/mL (≈ 42.7 µM); in assay [15], 0.5 µg/mL (≈ 1.34 µM); in assay [16], 2 µg/mL (≈ 5.34 µM).
For `CC1COc2c(N3CCN(C)CC3)c(F)cc3c(=O)c(C(=O)O)cn1c23` (configuration not stated) [OFLOXACIN], the MIC in [1] worked out at 0.5 µg/mL (≈ 1.38 µM); in assay [17], 0.031 µg/mL (≈ 0.0858 µM); in [2], 0.13 µg/mL (≈ 0.36 µM); in [3], 0.5 µg/mL (≈ 1.38 µM); in assay [4], 0.25 µg/mL (≈ 0.692 µM); in assay [19], 0.13 µg/mL (≈ 0.36 µM). Further, the MIC came out at 0.13 µg/mL (≈ 0.36 µM) in [20]; 0.063 µg/mL (≈ 0.174 µM) in assay [21]; 64 µg/mL (≈ 177 µM) in assay [7]; 0.031 µg/mL (≈ 0.0858 µM) in assay [8]; 0.13 µg/mL (≈ 0.36 µM) in assay [9]; 0.063 µg/mL (≈ 0.174 µM) in assay [22]. Besides, the minimal inhibitory concentration (MIC) in assay [10] was 2 µg/mL (≈ 5.53 µM); in assay [11], 0.25 µg/mL (≈ 0.692 µM); in assay [12] it was 0.25 µg/mL (≈ 0.692 µM); in [23], 0.063 µg/mL (≈ 0.174 µM); in assay [14], 32 µg/mL (≈ 88.6 µM); in assay [15], 0.25 µg/mL (≈ 0.692 µM). Besides, the lowest concentration to inhibit growth in assay [16] (MIC) was 2 µg/mL (≈ 5.53 µM).
Consider `Cc1c(N2CCC(CN)C2)c(F)c2c(c1N)c(=O)c(C(=O)O)cn2C1CC1` (configuration not stated), for which the MIC was determined as 0.031 µg/mL (≈ 0.0828 µM) in [1]; 0.031 µg/mL (≈ 0.0828 µM) in assay [17]; 0.13 µg/mL (≈ 0.347 µM) in [2]; 0.031 µg/mL (≈ 0.0828 µM) in assay [3]; 0.031 µg/mL (≈ 0.0828 µM) in assay [4]; 0.5 µg/mL (≈ 1.34 µM) in [5]. Besides, the minimal inhibitory concentration (MIC) in assay [18] came to 2 µg/mL (≈ 5.34 µM); in [19], 0.13 µg/mL (≈ 0.347 µM); in assay [20], 0.031 µg/mL (≈ 0.0828 µM); in assay [6] it was 1 µg/mL (≈ 2.67 µM); in assay [21], 0.063 µg/mL (≈ 0.168 µM); in assay [7], 8 µg/mL (≈ 21.4 µM). For the same compound, the MIC in [8] is 0.031 µg/mL (≈ 0.0828 µM); in [9], 0.13 µg/mL (≈ 0.347 µM); in [22] it was 0.016 µg/mL (≈ 0.0427 µM); in assay [10] it was 4 µg/mL (≈ 10.7 µM); in assay [11], 0.25 µg/mL (≈ 0.668 µM); in assay [12], 0.13 µg/mL (≈ 0.347 µM). Further, the MIC in assay [13] is 0.016 µg/mL (≈ 0.0427 µM); in [23], 0.13 µg/mL (≈ 0.347 µM); in assay [14], 16 µg/mL (≈ 42.7 µM); in [15], 0.063 µg/mL (≈ 0.168 µM); in assay [16], 0.25 µg/mL (≈ 0.668 µM).
For `Cc1c(N2CCNCC2)c(F)c2c(c1N)c(=O)c(C(=O)O)cn2C1CC1`, the MIC in assay [1] is 0.25 µg/mL (≈ 0.694 µM); in assay [17], ≤ 0.008 µg/mL; in assay [2], 0.063 µg/mL (≈ 0.175 µM); in assay [3], 0.25 µg/mL (≈ 0.694 µM); in assay [4], 0.13 µg/mL (≈ 0.361 µM); in assay [5], 0.5 µg/mL (≈ 1.39 µM). Further, the MIC is 2 µg/mL (≈ 5.55 µM) in [18]; 0.063 µg/mL (≈ 0.175 µM) in assay [19]; 0.063 µg/mL (≈ 0.175 µM) in [20]; 1 µg/mL (≈ 2.77 µM) in assay [6]; 0.031 µg/mL (≈ 0.086 µM) in assay [21]; 16 µg/mL (≈ 44.4 µM) in assay [7]. Besides, the MIC is ≤ 0.008 µg/mL in assay [8]; 0.031 µg/mL (≈ 0.086 µM) in assay [9]; 0.031 µg/mL (≈ 0.086 µM) in assay [22]; 4 µg/mL (≈ 11.1 µM) in assay [10]; 0.25 µg/mL (≈ 0.694 µM) in assay [11]; 0.13 µg/mL (≈ 0.361 µM) in assay [12]. In addition, the MIC in assay [13] is ≤ 0.008 µg/mL; in assay [23], 0.031 µg/mL (≈ 0.086 µM); in assay [14], 16 µg/mL (≈ 44.4 µM); in [15], 0.5 µg/mL (≈ 1.39 µM); in [16] it was 4 µg/mL (≈ 11.1 µM).
For the compound `Cc1c(N2CCC(N)C2)c(F)c2c(c1N)c(=O)c(C(=O)O)cn2C1CC1` (configuration not stated), the MIC in assay [1] was determined as 0.25 µg/mL (≈ 0.694 µM); in assay [17] it was 0.031 µg/mL (≈ 0.086 µM); in [2], 0.13 µg/mL (≈ 0.361 µM); in assay [3] it was 0.25 µg/mL (≈ 0.694 µM); in assay [4] it was 0.25 µg/mL (≈ 0.694 µM); in assay [5] it was 1 µg/mL (≈ 2.77 µM). Besides, the MIC stood at 4 µg/mL (≈ 11.1 µM) in assay [18]; 0.25 µg/mL (≈ 0.694 µM) in assay [19]; 0.25 µg/mL (≈ 0.694 µM) in assay [20]; 1 µg/mL (≈ 2.77 µM) in assay [6]; 0.13 µg/mL (≈ 0.361 µM) in assay [21]; 8 µg/mL (≈ 22.2 µM) in assay [7]. For the same compound, the MIC in assay [8] was 0.031 µg/mL (≈ 0.086 µM); in assay [9] it was 0.13 µg/mL (≈ 0.361 µM); in [22] it was 0.063 µg/mL (≈ 0.175 µM); in assay [10], 8 µg/mL (≈ 22.2 µM); in [11], 0.5 µg/mL (≈ 1.39 µM); in assay [12] it was 0.5 µg/mL (≈ 1.39 µM). For the same compound, the MIC in [13] came out at 0.031 µg/mL (≈ 0.086 µM); in [23], 0.13 µg/mL (≈ 0.361 µM); in assay [14] it was 16 µg/mL (≈ 44.4 µM); in [15] it was 0.5 µg/mL (≈ 1.39 µM); in [16], 8 µg/mL (≈ 22.2 µM).
